Test results: PMC5484023, “Multi-site binding of epigallocatechin gallate to human serum albumin measured by NMR and isothermal titration calorimetry” (Bioscience Reports, 2017)

Target: T1, human serum albumin (HSA) (Homo sapiens, UniProt P02768)
T1 construct: gene ALB; full-length, fatty acid and globulin-free HSA purified from serum
Assay: ITC ([…]°C, pH […]), two sets of independent sites; confirmed by 1H NMR chemical shift titration (Kd1 […])
Type: binding

T1 sequence (P02768 25-609): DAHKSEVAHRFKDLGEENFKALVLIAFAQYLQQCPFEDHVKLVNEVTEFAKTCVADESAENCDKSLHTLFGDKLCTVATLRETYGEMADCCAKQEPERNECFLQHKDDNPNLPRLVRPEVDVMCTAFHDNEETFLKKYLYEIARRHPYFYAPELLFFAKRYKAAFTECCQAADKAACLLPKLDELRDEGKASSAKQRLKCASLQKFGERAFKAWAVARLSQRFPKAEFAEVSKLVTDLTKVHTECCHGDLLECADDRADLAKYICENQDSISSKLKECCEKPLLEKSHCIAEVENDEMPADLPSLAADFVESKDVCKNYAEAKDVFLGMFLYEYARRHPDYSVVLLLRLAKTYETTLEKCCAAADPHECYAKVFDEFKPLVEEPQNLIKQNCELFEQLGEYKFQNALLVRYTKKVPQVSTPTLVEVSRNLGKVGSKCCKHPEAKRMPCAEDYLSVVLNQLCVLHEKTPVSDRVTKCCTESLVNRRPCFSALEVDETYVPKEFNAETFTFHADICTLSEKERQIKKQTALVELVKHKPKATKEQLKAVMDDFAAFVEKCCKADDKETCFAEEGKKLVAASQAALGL

Structure (SMILES): O=C(O[C@@H]1Cc2c(O)cc(O)cc2O[C@@H]1c1cc(O)c(O)c(O)c1)c1cc(O)c(O)c(O)c1 [epigallocatechin gallate]
- Kd: 22 ± 4 µM
